# According to PMC6100082, “Pyridine-Ureas as Potential Anticancer Agents: Synthesis and In Vitro Biological Evaluation” (Molecules : A Journal of Synthetic Chemistry and Natural …, 2018):
# Where two headings read alike, the source gives them in different places.
# How the values were obtained:
# NCI 58 cell line panel = experiment: NCI one-dose SRB assay, whole panel / subpanel summary; assay type: cell-based, human; conditions: for inhibition at 10 µM: Homo sapiens, one dose, read-out: mean inhibition (mean % growth inhibition over NCI 58 cell line panel); for Mean Growth Percent: One Dose Mean Graph, 1.00E-5 Molar
# Experimental: (§1) The structures of all the newly prepared pyridine-ureas 8a–n were submitted to the National Cancer Institute (NCI) Developmental Therapeutic Program. Eight compounds 8b, 8d, 8e, 8i, 8j and 8l–n were selected to be examined for their in vitro growth inhibitory activity. The anticancer assays were carried out according to the protocol of the Drug Evaluation Branch, NCI, Bethesda. The selected pyridine-ureas were tested at one dose primary anticancer assay against a panel of approximately 58 cancer lines (concentration 10^−5 M). The tested human cancer cell lines emerged from nine different cancer subtypes: leukemia, colon, melanoma, ovarian, lung, CNS, renal, breast and prostate cancers. The sulforhodamine B (SRB) protein assay was adopted to estimate the cell viability and growth. The results were reported as mean-graph of the percentage growth of the treated cells, and presented as percentage growth inhibition (GI%) caused by the test compounds (Table 2).
# (§2) The anticancer assays were performed in accordance with the protocol of the Drug Evaluation Branch, NCI, Bethesda. A 48 h drug exposure protocol was used and sulforhodamine B (SRB) protein assay was applied to estimate the cell viability and growth, as reported earlier.
# HCT-15 = experiment: NCI one-dose SRB assay (Colon Cancer); assay type: cell-based, human; conditions: for Growth Percent: HCT-15, 1.00E-5 Molar; for inhibition at 10 µM: Homo sapiens, HCT-15, 10 μM, read-out: Percentage growth inhibition (GI%)
# Experimental: as §1, §2
# COLO 205 = experiment: NCI one-dose SRB assay (Colon Cancer); assay type: cell-based, human; conditions: for Growth Percent: COLO 205, 1.00E-5 Molar; for inhibition at 10 µM: Homo sapiens, COLO 205, 10 μM, read-out: Percentage growth inhibition (GI%)
# Experimental: as §1, §2
# HT29 = experiment: NCI one-dose SRB assay (Colon Cancer); assay type: cell-based, human; conditions: for Growth Percent: HT29, 1.00E-5 Molar; for inhibition at 10 µM: Homo sapiens, HT-29, HT29, 10 μM, read-out: Percentage growth inhibition (GI%)
# Experimental: as §1, §2
# HCT-116 = experiment: NCI one-dose SRB assay (Colon Cancer); assay type: cell-based, human; conditions: for Growth Percent: HCT-116, 1.00E-5 Molar; for inhibition at 10 µM: Homo sapiens, HCT-116, 10 μM, read-out: Percentage growth inhibition (GI%)
# Experimental: as §1, §2
# SW-620 = experiment: NCI one-dose SRB assay (Colon Cancer); assay type: cell-based, human; conditions: for inhibition at 10 µM: Homo sapiens, SW-620, 10 μM, read-out: Percentage growth inhibition (GI%); for Growth Percent: SW-620, 1.00E-5 Molar
# Experimental: as §1, §2
# KM12 = experiment: NCI one-dose SRB assay (Colon Cancer); assay type: cell-based, human; conditions: for inhibition at 10 µM: Homo sapiens, KM12, 10 μM, read-out: Percentage growth inhibition (GI%); for Growth Percent: KM12, 1.00E-5 Molar
# Experimental: as §1, §2
# HCC-2998 = experiment: NCI one-dose SRB assay (Colon Cancer); assay type: cell-based, human; conditions: for Growth Percent: HCC-2998, 1.00E-5 Molar; for inhibition at 10 µM: Homo sapiens, HCC-2998, 10 μM, read-out: Percentage growth inhibition (GI%)
# Experimental: as §1, §2
# SNB-75 = experiment: NCI one-dose SRB assay (CNS Cancer); assay type: cell-based, human; conditions: for inhibition at 10 µM: Homo sapiens, SNB-75, 10 μM, read-out: Percentage growth inhibition (GI%); for Growth Percent: SNB-75, 1.00E-5 Molar
# Experimental: as §1, §2
# SF-539 = experiment: NCI one-dose SRB assay (CNS Cancer); assay type: cell-based, human; conditions: for inhibition at 10 µM: Homo sapiens, SF-539, 10 μM, read-out: Percentage growth inhibition (GI%); for Growth Percent: SF-539, 1.00E-5 Molar
# Experimental: as §1, §2
# SF-268 = experiment: NCI one-dose SRB assay (CNS Cancer); assay type: cell-based, human; conditions: for inhibition at 10 µM: Homo sapiens, SF-268, 10 μM, read-out: Percentage growth inhibition (GI%); for Growth Percent: SF-268, 1.00E-5 Molar
# Experimental: as §1, §2
# SNB-19 = experiment: NCI one-dose SRB assay (CNS Cancer); assay type: cell-based, human; conditions: for inhibition at 10 µM: Homo sapiens, SNB-19, 10 μM, read-out: Percentage growth inhibition (GI%); for Growth Percent: SNB-19, 1.00E-5 Molar
# Experimental: as §1, §2
# SF-295 = experiment: NCI one-dose SRB assay (CNS Cancer); assay type: cell-based, human; conditions: for inhibition at 10 µM: Homo sapiens, SF-295, 10 μM, read-out: Percentage growth inhibition (GI%); for Growth Percent: SF-295, 1.00E-5 Molar
# Experimental: as §1, §2
# U251 = experiment: NCI one-dose SRB assay (CNS Cancer); assay type: cell-based, human; conditions: for inhibition at 10 µM: Homo sapiens, U-251, U251, 10 μM, read-out: Percentage growth inhibition (GI%); for Growth Percent: U251, 1.00E-5 Molar
# Experimental: as §1, §2
# PC-3 = experiment: NCI one-dose SRB assay (Prostate); assay type: cell-based, human; conditions: for inhibition at 10 µM: Homo sapiens, PC-3, 10 μM, read-out: Percentage growth inhibition (GI%); for Growth Percent: PC-3, 1.00E-5 Molar
# Experimental: as §1, §2
# DU-145 = experiment: NCI one-dose SRB assay (Prostate); assay type: cell-based, human; conditions: for Growth Percent: DU-145, 1.00E-5 Molar; for inhibition at 10 µM: Homo sapiens, DU-145, 10 μM, read-out: Percentage growth inhibition (GI%)
# Experimental: as §1, §2
# [1] = test system: breast cancer MCF-7 cell line; experiment: In vitro anti-proliferative activity, MTT assay; assay type: cell-based, human; conditions: Homo sapiens, MCF-7, MTT
# Procedure, shortened: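 Growth inhibition was read colorimetrically by MTT, run in triplicate and averaged over at least three independent experiments. The cells were maintained in DMEM supplemented with 10 μg/mL insulin, 10% heat-inactivated FBS and 1% penicillin-streptomycin.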
# K-562 = experiment: NCI one-dose SRB assay (Leukemia); assay type: cell-based, human; conditions: for inhibition at 10 µM: Homo sapiens, K562, K-562, 10 μM, read-out: Percentage growth inhibition (GI%); for Growth Percent: K-562, 1.00E-5 Molar
# Experimental: as §1, §2
# HL-60(TB) = experiment: NCI one-dose SRB assay (Leukemia); assay type: cell-based, human; conditions: for Growth Percent: 1.00E-5 Molar; for inhibition at 10 µM: Homo sapiens, read-out: Percentage growth inhibition (GI%)
# Experimental: as §1, §2
# CCRF-CEM = experiment: NCI one-dose SRB assay (Leukemia); assay type: cell-based, human; conditions: for Growth Percent: 1.00E-5 Molar; for inhibition at 10 µM: Homo sapiens, read-out: Percentage growth inhibition (GI%)
# Experimental: as §1, §2
# RPMI-8226 = experiment: NCI one-dose SRB assay (Leukemia); assay type: cell-based, human; conditions: for inhibition at 10 µM: Homo sapiens, RPMI-8226, 10 μM, read-out: Percentage growth inhibition (GI%); for Growth Percent: RPMI-8226, 1.00E-5 Molar
# Experimental: as §1, §2
# MOLT-4 = experiment: NCI one-dose SRB assay (Leukemia); assay type: cell-based, human; conditions: for inhibition at 10 µM: Homo sapiens, MOLT-4, 10 μM, read-out: Percentage growth inhibition (GI%); for Growth Percent: MOLT-4, 1.00E-5 Molar
# Experimental: as §1, §2
# SR = experiment: NCI one-dose SRB assay (Leukemia); assay type: cell-based, human; conditions: for Growth Percent: 1.00E-5 Molar; for inhibition at 10 µM: Homo sapiens, read-out: Percentage growth inhibition (GI%)
# Experimental: as §1, §2
# [2] = MCF7, 48 h, 48 h of incubation, read-out: IC50 48 h
# [3] = MCF7, 72 h, 72 h of incubation, read-out: IC50 72 h
smiles,measurement,setting,value
"COc1ccc(-c2ccc(NC(=O)Nc3ccc(Cl)c(C(F)(F)F)c3)c(C)n2)cc1 [Compound 8e, 1-(4-Chloro-3-(trifluoromethyl)phenyl)-3-(6-(4-methoxyphenyl)-2-methylpyridin-3-yl)urea]",inhibition at 10 µM,NCI 58 cell line panel,49%
same,Mean Growth Percent,NCI 58 cell line panel,51.42%
same,Growth Percent,HCT-15,37.80%
same,inhibition at 10 µM,HCT-15,63%
same,Growth Percent,COLO 205,80.09%
same,inhibition at 10 µM,COLO 205,20%
same,Growth Percent,HT29,46.44%
same,inhibition at 10 µM,HT29,54%
same,Growth Percent,HCT-116,23.73%
same,inhibition at 10 µM,HCT-116,77%
same,inhibition at 10 µM,SW-620,33%
same,Growth Percent,SW-620,67.04%
same,inhibition at 10 µM,KM12,63%
same,Growth Percent,KM12,37.36%
same,Growth Percent,HCC-2998,69.17%
same,inhibition at 10 µM,HCC-2998,31%
same,melting point,,195 to 197 °C
same,inhibition at 10 µM,SNB-75,27%
same,Growth Percent,SNB-75,73.44%
same,inhibition at 10 µM,SF-539,19%
same,Growth Percent,SF-539,81.32%
same,inhibition at 10 µM,SF-268,27%
same,Growth Percent,SF-268,73.73%
same,inhibition at 10 µM,SNB-19,43%
same,Growth Percent,SNB-19,57.33%
same,inhibition at 10 µM,SF-295,54%
same,Growth Percent,SF-295,46.97%
same,inhibition at 10 µM,U251,67%
same,Growth Percent,U251,33.63%
same,inhibition at 10 µM,PC-3,86%
same,Growth Percent,PC-3,14.67%
same,Growth Percent,DU-145,54.52%
same,inhibition at 10 µM,DU-145,46%
same,IC50,[1]; [2],0.22 ± 0.02 µM
same,IC50,[1]; [3],0.11 ± 0.1 µM
same,inhibition at 10 µM,K-562,84%
same,Growth Percent,K-562,16.70%
same,Growth Percent,HL-60(TB),32.27%
same,inhibition at 10 µM,HL-60(TB),68%
same,Growth Percent,CCRF-CEM,29.88%
same,inhibition at 10 µM,CCRF-CEM,71%
same,inhibition at 10 µM,RPMI-8226,91%
same,Growth Percent,RPMI-8226,9.87%
same,inhibition at 10 µM,MOLT-4,76%
same,Growth Percent,MOLT-4,24.60%
same,Growth Percent,SR,35.68%
same,inhibition at 10 µM,SR,65%
"COc1ccc(-c2ccc(NC(=O)Nc3cccc(C(F)(F)F)c3)c(C)n2)cc1OC [Compound 8i, 1-(6-(3,4-Dimethoxyphenyl)-2-methylpyridin-3-yl)-3-(3-(trifluoromethyl)phenyl) Urea]",inhibition at 10 µM,NCI 58 cell line panel,22 to 34%
same,Mean Growth Percent,NCI 58 cell line panel,67.33%
same,Growth Percent,HCT-15,48.77%
same,inhibition at 10 µM,HCT-15,52%
same,Growth Percent,COLO 205,88.09%
same,inhibition at 10 µM,COLO 205,12%
same,Growth Percent,HT29,59.96%
same,inhibition at 10 µM,HT29,41%
same,Growth Percent,HCT-116,17.63%
same,inhibition at 10 µM,HCT-116,83%
same,inhibition at 10 µM,SW-620,< 10%
same,Growth Percent,SW-620,91.19%
same,inhibition at 10 µM,KM12,34%
same,Growth Percent,KM12,66.00%
same,Growth Percent,HCC-2998,84.39%
same,inhibition at 10 µM,HCC-2998,16%
same,melting point,,235 to 237 °C
same,inhibition at 10 µM,SNB-75,34%
same,Growth Percent,SNB-75,66.71%
same,inhibition at 10 µM,SF-539,23%
same,Growth Percent,SF-539,77.24%
same,inhibition at 10 µM,SF-268,25%
same,Growth Percent,SF-268,75.96%
same,inhibition at 10 µM,SNB-19,22%
same,Growth Percent,SNB-19,78.84%
same,inhibition at 10 µM,SF-295,35%
same,Growth Percent,SF-295,65.28%
same,inhibition at 10 µM,U251,37%
same,Growth Percent,U251,63.88%
same,inhibition at 10 µM,PC-3,73%
same,Growth Percent,PC-3,27.45%
same,Growth Percent,DU-145,82.57%
same,inhibition at 10 µM,DU-145,18%
same,IC50,[1]; [2],6.19 ± 0.54 µM
same,IC50,[1]; [3],5.8 ± 0.34 µM
same,inhibition at 10 µM,K-562,69%
same,Growth Percent,K-562,31.93%
same,Growth Percent,HL-60(TB),61.08%
same,inhibition at 10 µM,HL-60(TB),39%
same,Growth Percent,CCRF-CEM,50.94%
same,inhibition at 10 µM,CCRF-CEM,50%
same,inhibition at 10 µM,RPMI-8226,66%
same,Growth Percent,RPMI-8226,34.61%
same,inhibition at 10 µM,MOLT-4,61%
same,Growth Percent,MOLT-4,39.58%
same,Growth Percent,SR,51.13%
same,inhibition at 10 µM,SR,49%
